The text below walks through data of patent US11760762B2, “Thienopyranones and furanopyranones as kinase, bromodomain, and checkpoint inhibitors” (SignalRx Pharmaceuticals, Inc., priority 2017, dated 2023).

Experiment [1] deals with T1, CDK4 (Homo sapiens, UniProt P11802).
T1 construct: Reaction Biology Corp., Malvern, PA (contract assay service)
As to the kind of experiment: Cyclin dependent kinase inhibition (Reaction Biology Corp.). It is filed as biochemical. The settings on record: 10-point curve, grouped by potency. Here is the method: (§1) PI3K-alpha, PI3K-beta, PI3K-gamma, and PI3K-delta inhibition activity was determined by Thermo Fisher Scientific-Biosciences Life Sciences Solutions, Madison, WI The bromodomain protein inhibition (binding domain 1 and 2 of BRD4) was determined by Reaction Biology Corp., Malvern, PA The cyclin dependent kinase inhibition on proteins such as CDK2, CDK4, CDK6, and CDK9 was determined by Reaction Biology Corp., Malvern, PA.
(§2) The compounds of the invention were characterized by their ability to inhibit the target proteins using third party vendors offering such services. PI3K-alpha, PI3K-gamma, and PI3K-delta inhibition activity was determined by Thermo Fisher Scientific-Biosciences Life Sciences Solutions, Madison, WI. […] NI=no inhibition detected up to 50 μM or IC50 not reached at 50 μM. ND=not done.

The target in experiment [2] is T2, CDK6 (Homo sapiens, UniProt Q00534).
T2 construct: Reaction Biology Corp., Malvern, PA (contract assay service)
T2 sequence (Q00534 whole entry): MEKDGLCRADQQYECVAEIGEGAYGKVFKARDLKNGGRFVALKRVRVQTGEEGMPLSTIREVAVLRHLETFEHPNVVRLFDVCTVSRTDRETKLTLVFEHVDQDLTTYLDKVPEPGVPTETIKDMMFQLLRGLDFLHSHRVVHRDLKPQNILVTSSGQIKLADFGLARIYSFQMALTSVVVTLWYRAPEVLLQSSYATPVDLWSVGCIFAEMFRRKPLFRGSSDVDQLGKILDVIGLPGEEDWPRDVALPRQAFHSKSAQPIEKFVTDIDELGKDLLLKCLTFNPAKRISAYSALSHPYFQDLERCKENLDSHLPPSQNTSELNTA
T2 sequence (P24385 whole entry partner): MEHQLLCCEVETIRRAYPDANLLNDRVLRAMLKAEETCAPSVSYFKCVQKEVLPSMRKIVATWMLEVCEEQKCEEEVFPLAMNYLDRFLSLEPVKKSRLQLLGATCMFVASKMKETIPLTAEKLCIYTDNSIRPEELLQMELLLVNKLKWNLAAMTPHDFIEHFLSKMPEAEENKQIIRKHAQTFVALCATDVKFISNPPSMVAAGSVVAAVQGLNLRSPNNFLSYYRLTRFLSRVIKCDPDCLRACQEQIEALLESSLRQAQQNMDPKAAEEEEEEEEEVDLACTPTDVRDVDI
The description is as above. It is filed as biochemical. The following applies: 10-point curve, grouped by potency. Here is the method:
as §1, §2

In experiment [3] the target is T3, BRD4 binding domain 1 (Homo sapiens, UniProt O60885).
T3 construct: Reaction Biology Corp., Malvern, PA (contract assay service)
The experiment in a line: Bromodomain protein inhibition (Reaction Biology Corp.). The following applies: 10-point curve, grouped by potency; for IC50: read-out: IC50 BRD4-1. How it is done:
as §1
(§3) The compounds of the invention were characterized by their ability to inhibit the target proteins using third party vendors offering such services. PI3K-alpha, PI3K-gamma, and PI3K-delta inhibition activity was determined by Thermo Fisher Scientific-Biosciences Life Sciences Solutions, Madison, WI. […] ND=not done.

In experiment [4] the target is T4, BRD4 binding domain 2 (Homo sapiens, UniProt O60885).
T4 construct: Reaction Biology Corp., Malvern, PA (contract assay service)
Described as above. The following applies: 10-point curve, grouped by potency; read-out: IC50 BRD4-2. How it is done:
as §1, §3

Experiment [5] deals with T5, PI3K-alpha (Homo sapiens, UniProt P42336).
T5 construct: Thermo Fisher Scientific-Biosciences Life Sciences Solutions, Madison, WI (contract assay service)
T5 sequence (P42336 whole entry): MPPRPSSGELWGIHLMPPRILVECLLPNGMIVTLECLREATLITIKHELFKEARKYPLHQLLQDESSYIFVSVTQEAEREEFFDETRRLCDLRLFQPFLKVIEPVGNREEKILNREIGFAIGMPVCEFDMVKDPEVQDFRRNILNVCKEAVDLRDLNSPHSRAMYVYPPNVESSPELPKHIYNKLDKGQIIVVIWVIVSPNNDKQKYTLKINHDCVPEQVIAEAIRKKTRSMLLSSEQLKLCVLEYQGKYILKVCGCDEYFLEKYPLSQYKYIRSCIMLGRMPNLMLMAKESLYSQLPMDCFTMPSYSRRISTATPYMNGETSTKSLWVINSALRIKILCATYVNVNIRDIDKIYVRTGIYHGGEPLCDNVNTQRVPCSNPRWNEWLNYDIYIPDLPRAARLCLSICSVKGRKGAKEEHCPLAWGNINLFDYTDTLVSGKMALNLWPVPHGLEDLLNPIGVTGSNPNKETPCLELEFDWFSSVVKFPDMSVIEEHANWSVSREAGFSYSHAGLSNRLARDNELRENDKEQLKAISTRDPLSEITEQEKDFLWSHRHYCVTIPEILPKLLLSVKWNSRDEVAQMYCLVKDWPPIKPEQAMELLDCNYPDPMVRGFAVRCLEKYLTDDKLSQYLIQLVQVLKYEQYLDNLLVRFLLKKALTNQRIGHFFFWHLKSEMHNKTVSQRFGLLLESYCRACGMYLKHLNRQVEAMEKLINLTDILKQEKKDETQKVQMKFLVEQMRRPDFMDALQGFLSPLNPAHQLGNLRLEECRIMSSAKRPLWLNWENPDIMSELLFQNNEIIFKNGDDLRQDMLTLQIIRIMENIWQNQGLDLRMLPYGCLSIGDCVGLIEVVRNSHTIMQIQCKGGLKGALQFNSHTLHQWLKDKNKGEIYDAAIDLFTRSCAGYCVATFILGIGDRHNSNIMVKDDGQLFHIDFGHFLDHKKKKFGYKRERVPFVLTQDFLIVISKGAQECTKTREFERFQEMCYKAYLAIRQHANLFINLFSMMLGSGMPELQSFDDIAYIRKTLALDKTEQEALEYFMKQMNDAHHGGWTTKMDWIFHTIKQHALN
T5 sequence (P27986 whole entry partner): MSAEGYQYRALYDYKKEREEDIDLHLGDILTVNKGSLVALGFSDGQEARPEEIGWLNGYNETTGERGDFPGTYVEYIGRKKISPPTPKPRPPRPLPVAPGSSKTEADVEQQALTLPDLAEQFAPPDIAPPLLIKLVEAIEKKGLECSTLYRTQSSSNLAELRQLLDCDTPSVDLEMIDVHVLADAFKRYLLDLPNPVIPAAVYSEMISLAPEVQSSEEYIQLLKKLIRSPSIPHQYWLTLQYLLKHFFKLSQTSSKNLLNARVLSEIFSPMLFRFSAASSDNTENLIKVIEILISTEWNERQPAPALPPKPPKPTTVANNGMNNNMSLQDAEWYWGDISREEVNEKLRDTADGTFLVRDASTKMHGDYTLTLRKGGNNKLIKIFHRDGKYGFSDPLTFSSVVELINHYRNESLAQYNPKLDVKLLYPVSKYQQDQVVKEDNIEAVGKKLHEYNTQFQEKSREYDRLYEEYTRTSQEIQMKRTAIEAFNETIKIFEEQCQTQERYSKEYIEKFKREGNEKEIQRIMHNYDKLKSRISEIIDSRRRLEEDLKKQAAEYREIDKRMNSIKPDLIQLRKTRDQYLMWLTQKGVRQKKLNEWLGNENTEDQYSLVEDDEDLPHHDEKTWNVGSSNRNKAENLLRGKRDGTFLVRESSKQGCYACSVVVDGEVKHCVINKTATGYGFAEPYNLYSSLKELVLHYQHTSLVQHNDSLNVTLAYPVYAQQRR
As to the kind of experiment: PI3K inhibition (Thermo Fisher Scientific). The settings on record: 10-point curve, grouped by potency; read-out: IC50 P13K α. Format: biochemical.
Method: PI3K-alpha, PI3K-gamma, and PI3K-delta inhibition activity was determined by Thermo Fisher Scientific-Biosciences Life Sciences Solutions, Madison, WI. The bromodomain protein inhibition (binding domain 1 and 2 of BRD4 was determined by Reaction Biology Corp., Malvern, PA The cyclin dependent kinase inhibition on CDK4 and CDK6 was determined by Reaction Biology Corp., Malvern, PA Additional information on each of the above testing procedures and services is available at each company's website on the internet. The IC50 data presented below in Table 11 is calculated from a 10-point curve and is expressed in nanomolar concentration (nM) and grouped according to potency. Where multiple values have been obtained the range from lowest to highest values is presented. NI=no inhibition detected up to 50 μM or IC50 not reached at 50 μM. ND=not done.

The target in experiment [6] is T6, PI3K-delta (Homo sapiens, UniProt O00329).
T6 construct: Thermo Fisher Scientific-Biosciences Life Sciences Solutions, Madison, WI (contract assay service)
T6 sequence (O00329 whole entry): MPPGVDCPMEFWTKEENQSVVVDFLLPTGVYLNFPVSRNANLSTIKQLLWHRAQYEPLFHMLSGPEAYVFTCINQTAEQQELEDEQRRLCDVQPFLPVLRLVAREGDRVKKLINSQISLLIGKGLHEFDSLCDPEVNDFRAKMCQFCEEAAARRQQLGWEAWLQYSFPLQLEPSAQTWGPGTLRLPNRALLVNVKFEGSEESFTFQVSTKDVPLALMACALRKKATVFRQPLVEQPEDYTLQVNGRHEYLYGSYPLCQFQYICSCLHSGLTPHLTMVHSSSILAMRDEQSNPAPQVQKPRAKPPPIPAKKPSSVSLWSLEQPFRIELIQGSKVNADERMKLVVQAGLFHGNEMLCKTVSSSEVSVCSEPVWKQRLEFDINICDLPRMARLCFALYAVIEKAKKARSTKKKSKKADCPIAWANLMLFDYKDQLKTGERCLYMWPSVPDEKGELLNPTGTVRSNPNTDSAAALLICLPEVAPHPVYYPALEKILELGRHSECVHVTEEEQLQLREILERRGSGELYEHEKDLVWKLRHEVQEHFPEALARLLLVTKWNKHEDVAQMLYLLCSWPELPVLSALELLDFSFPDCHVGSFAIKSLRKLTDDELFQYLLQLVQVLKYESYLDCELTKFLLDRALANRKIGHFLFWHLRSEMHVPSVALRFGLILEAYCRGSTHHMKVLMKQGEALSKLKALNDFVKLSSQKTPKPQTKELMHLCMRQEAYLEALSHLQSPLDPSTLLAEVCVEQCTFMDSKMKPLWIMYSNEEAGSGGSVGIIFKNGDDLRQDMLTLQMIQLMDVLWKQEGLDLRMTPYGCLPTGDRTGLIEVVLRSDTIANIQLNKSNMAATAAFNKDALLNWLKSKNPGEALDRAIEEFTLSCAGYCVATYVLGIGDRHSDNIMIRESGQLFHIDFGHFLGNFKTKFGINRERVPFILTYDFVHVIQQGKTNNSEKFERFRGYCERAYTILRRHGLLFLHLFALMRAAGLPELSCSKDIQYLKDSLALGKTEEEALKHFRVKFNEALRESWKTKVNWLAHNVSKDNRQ
T6 sequence (P27986 whole entry partner): as the sequence (P27986 whole entry partner) above
The experiment in a line: PI3K inhibition (Thermo Fisher Scientific). The following applies: 10-point curve, grouped by potency; read-out: IC50 P13K δ. Format: biochemical. How it is done: as §1, §2

In experiment [7] the target is T7, PI3K-gamma (Homo sapiens, UniProt P48736).
T7 construct: Thermo Fisher Scientific-Biosciences Life Sciences Solutions, Madison, WI (contract assay service)
T7 sequence (P48736 whole entry): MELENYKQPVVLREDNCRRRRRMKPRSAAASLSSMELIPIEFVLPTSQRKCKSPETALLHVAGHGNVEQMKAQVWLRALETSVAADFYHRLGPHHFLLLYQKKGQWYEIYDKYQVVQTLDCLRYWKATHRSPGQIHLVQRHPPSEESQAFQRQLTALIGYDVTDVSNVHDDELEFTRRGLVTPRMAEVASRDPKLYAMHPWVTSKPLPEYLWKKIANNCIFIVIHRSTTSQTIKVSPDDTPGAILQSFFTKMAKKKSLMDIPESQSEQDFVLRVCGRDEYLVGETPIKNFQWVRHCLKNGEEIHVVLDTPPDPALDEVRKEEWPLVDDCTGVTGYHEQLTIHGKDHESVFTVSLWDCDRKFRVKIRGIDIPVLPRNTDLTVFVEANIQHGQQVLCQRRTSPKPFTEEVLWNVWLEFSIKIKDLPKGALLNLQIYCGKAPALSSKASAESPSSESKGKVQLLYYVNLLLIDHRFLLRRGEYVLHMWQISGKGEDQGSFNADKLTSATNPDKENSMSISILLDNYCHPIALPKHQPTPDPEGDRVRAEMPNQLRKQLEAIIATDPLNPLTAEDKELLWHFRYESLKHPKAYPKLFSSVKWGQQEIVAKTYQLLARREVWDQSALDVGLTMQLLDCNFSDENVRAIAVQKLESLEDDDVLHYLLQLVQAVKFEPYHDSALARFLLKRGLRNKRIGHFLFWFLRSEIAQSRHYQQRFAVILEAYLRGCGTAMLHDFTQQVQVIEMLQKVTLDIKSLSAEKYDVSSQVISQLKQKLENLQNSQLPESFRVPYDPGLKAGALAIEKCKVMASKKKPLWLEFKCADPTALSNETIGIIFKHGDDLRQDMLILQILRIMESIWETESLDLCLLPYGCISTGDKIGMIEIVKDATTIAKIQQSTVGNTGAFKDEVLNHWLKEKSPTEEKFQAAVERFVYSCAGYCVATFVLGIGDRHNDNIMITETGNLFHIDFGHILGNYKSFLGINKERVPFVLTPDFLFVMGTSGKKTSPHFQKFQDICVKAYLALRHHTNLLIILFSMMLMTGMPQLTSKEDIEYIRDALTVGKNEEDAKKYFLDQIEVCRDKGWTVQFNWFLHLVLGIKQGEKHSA
As to the kind of experiment: PI3K inhibition (Thermo Fisher Scientific). It is filed as biochemical. The following applies: 10-point curve, grouped by potency; read-out: IC50 P13K γ. How it is done:
as §1, §2

Experiment [8] concerns PI3 kinases. The following applies: C. J. Vlahos et al., J. Biol. Chem. 1994; cited from earlier work.
For experiment [9], the system named is Granta. As to the kind of experiment: Mantle cell lymphoma cell viability, AlamarBlue. Format: cell-based. The following applies: 48 hours; read-out: Mantle Cell Line IC50 Values Granta. Here is the method: (§4) Mantle cell lymphoma cell lines Granta, Mino and Jeko-1 were seeded at a density of 2500 cells/0.1 mL per well in a 96-well plate. Compounds 1 or Palbociclib were added post-plating at 50 μM-50 nM concentrations for 48 hours followed by addition of AlamarBlue® and incubation of plates at 37° C. in 5% CO2 for 6 hours. Fluorescence signals were read as emission at 590 nm after excitation at 560 nm. IC50 for each cell line was determined using Graphpad Prism software module.

Experiment [10] relates to Jeko-1. As to the kind of experiment: Mantle cell lymphoma cell viability, AlamarBlue. Format: cell-based. The following applies: Homo sapiens, JeKo-1; 48 hours; read-out: Mantle Cell Line IC50 Values Jeko-1. How it is done: as §4
In experiment [11] the test system is Mino. As to the kind of experiment: Mantle cell lymphoma cell viability, AlamarBlue. It is filed as cell-based. The following applies: Homo sapiens, MINO; 48 hours; read-out: Mantle Cell Line IC50 Values Mino. How it is done:
as §4

For experiment [12], the system named is Huh7 2H cell line. The experiment in a line: Huh7 2H cell viability. It is filed as cell-based. The settings on record: for IC50: Homo sapiens, Huh-7, 2 h. Here is the method:
(§5) Cells were seeded into 96-well plate at 1×10^4 cell per well in complete medium+10% FCS and incubated for 24 hours prior to the addition of compounds at concentrations ranging from 50 μM to 50 nM. Cell viability was quantitated 24 hours after the addition of compounds using AlamarBlue® viable cell detection reagent. IC50 curves were determined using Graphpad Prism software.
The procedures of example 6 were followed except using the Huh7 2H cell line.

In experiment [13] the test system is Hep3B. The experiment in a line: Hepatocellular carcinoma cell viability, AlamarBlue. Format: cell-based. The settings on record: Homo sapiens, 24 hours, read-out: Hepatocarcinoma Cell Line IC50 Values Hep3B. Here is the method:
as §5
Background: Alamar Blue is a resazurin reagent that responds to reducing activity.

Experiment [14] concerns HepG2. The experiment is described as above. Format: cell-based. The following applies: Homo sapiens, 24 hours, read-out: Hepatocarcinoma Cell Line IC50 Values HepG2. How it is done:
as §5

Experiment [15] relates to Huh7. The experiment is described as above. The settings on record: Homo sapiens, Huh-7; 24 hours; read-out: Hepatocarcinoma Cell Line IC50 Values Huh7. It is filed as cell-based. Here is the method:
as §5

Where a name gives a salt, the structure may show the parent alone. Bounds are passed on as bounds.

T1 sequence (P11802 whole entry): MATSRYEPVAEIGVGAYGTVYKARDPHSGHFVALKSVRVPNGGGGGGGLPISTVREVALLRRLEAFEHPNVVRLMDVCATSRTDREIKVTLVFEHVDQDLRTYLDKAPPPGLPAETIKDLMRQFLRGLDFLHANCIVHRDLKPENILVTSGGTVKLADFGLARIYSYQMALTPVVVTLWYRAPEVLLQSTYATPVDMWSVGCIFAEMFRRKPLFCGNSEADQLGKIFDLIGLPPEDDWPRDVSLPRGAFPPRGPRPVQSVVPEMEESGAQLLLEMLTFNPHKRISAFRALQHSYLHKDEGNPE
T1 sequence (P24385 whole entry partner): as the sequence (P24385 whole entry partner) above

What is called IC50 is the concentration at which inhibition is half-maximal. For the compound `CN(C)C(=O)c1cc2cnc(Nc3ccc(-c4csc5c(=O)cc(N6CCOCC6)oc45)cn3)nc2n1C1CCCC1` [Compound 3, {1-Cyclopentyl-6-[5-(5-morpholino-7-oxo-4-oxa-1-thia-3-indenyl)-2-pyridylamino]-1,5,7-triaza-1H-inden-2-yl}(dimethylamino)formaldehyde], the half-maximal inhibitory concentration (IC50) in [1] was under 100 nM; in experiment [2] it was under 100 nM; in experiment [4], 100 to 1000 nM; in experiment [5] it was 100 to 1000 nM; in [6] it was under 100 nM; in experiment [7] it was 100 to 1000 nM. In experiment [3], the “IC50 BRD4-1” value is “* to **”.
In the case of `CN(C)C(=O)c1cc2cnc(Nc3ccc(-c4csc5c(=O)cc(N6CCN(C(=O)OC(C)(C)C)CC6)oc45)cc3)nc2n1C1CCCC1` [Compound 18], the IC50 is under 100 nM in experiment [1]; under 100 nM in [2]; 100 to 1000 nM in experiment [3]; 1000 to 5000 nM in [4]; 5000 to 50000 nM in [5]; 100 to 1000 nM in [6]. Moreover, the IC50 in [7] lay in the range of 1000 to 5000 nM.
Turning to `O=c1cc(N2CCOCC2)oc2c(-c3ccccc3)cccc12` [LY294002, 2-(4-morpholinyl)-8-phenyl-4H-1-benzopyran-4-one], the IC50 in [8] was 1400 nM.
On to `CN(C)C(=S)c1cc2cnc(Nc3ccc(-c4csc5c(=S)cc(N6CCOCC6)oc45)cc3)nc2n1C1CCCC1` [Compound 12, 7-Cyclopentyl-N,N-dimethyl-2-((4-(5-morpholino-7-thioxo-7H-thieno[3,2-b]pyran-3-yl)phenyl)amino)-7H-pyrrolo[2,3-d]pyrimidine-6-carbothioamide], for which the IC50 in experiment [1] lay in the range of 100 to 1000 nM; in [2], 100 to 1000 nM; in experiment [3], 5000 to 50000 nM; in [4], 5000 to 50000 nM; in experiment [5], 100 to 1000 nM; in experiment [6], 100 to 1000 nM. For the same compound, the IC50 in experiment [7] was in the range of 5000 to 50000 nM.
Turning to `CC(=O)c1c(C)c2cnc(Nc3ccc(N4CCNCC4)cn3)nc2n(C2CCCC2)c1=O` [Palbociclib, reference compound], the IC50 in experiment [9] turned out to be 10200 nM; in experiment [10], 7430 nM; in [11], 47900 nM; in [12], 9200 nM. In addition, the “times less potent than Compound 1, Huh7 2H” value in experiment [12] (ratio of IC50 values) was “about 18 times”.
For the compound `CN(C)C(=O)c1cc2cnc(Nc3ccc(-c4csc5c(=O)cc(N6CCNCC6)oc45)cc3)nc2n1C1CCCC1` [compound 2, (1-Cyclopentyl-6-{p-[7-oxo-5-(1-piperazinyl)-4-oxa-1-thia-3-indenyl]phenylamino}-1,5,7-triaza-1H-inden-2-yl)(dimethylamino)formaldehyde hydrochloride], the IC50 was under 100 nM in experiment [1]; under 100 nM in experiment [2]; 100 to 1000 nM in experiment [3]; 100 to 1000 nM in [4]; 5000 to 50000 nM in [5]; 5000 to 50000 nM in experiment [6]. The IC50 in [7] fell in the range of 5000 to 50000 nM.
As for `O=c1cc(N2CCOCC2)oc2c(-c3ccc4c(c3)OCCO4)csc12` [Compound 0, reference compound], the IC50 in experiment [13] was 6600 nM; in experiment [14], 5000 nM; in experiment [15], 14300 nM; in experiment [12] it was 2970 to 5900 nM.
For `CN(C)C(=O)c1cc2cnc(Nc3ccc(-c4csc5c(=S)cc(N6CCOCC6)oc45)cc3)nc2n1C1CCCC1` [Compound 11, {1-Cyclopentyl-6-[p-(5-morpholino-7-thioxo-4-oxa-1-thia-3-indenyl)phenylamino]-1,5,7-triaza-1H-inden-2-yl}(dimethylamino)formaldehyde], the IC50 in experiment [1] is under 100 nM; in experiment [2] it was under 100 nM; in experiment [3], 1000 to 5000 nM; in experiment [4] it was 1000 to 5000 nM; in experiment [5], 100 to 1000 nM; in experiment [6], 100 to 1000 nM. Also, the IC50 in [7] was 5000 to 50000 nM.
With `CC(=O)c1c(C)c2cnc(Nc3ccc(-c4csc5c(=O)cc(N6CCOCC6)oc45)cc3)nc2n(C2CCCC2)c1=O` [Compound 6, 1-{8-cyclopentyl-5-methyl-2-[p-(5-morpholino-7-oxo-4-oxa-1-thia-3-indenyl)phenylamino]-7-oxo-1,3,8-triaza-8H-naphth-6-yl}-1-ethanone], the IC50 in experiment [1] is under 100 nM; in experiment [2], under 100 nM; in [3] it was 100 to 1000 nM; in experiment [4] it was 100 to 1000 nM; in [5], under 100 nM; in experiment [6], under 100 nM. The IC50 in [7] was in the range of 1000 to 5000 nM.
Consider `COC(=O)c1cc(Nc2ncc3cc(C(=O)N(C)C)n(C4CCCC4)c3n2)ccc1-c1csc2c(=O)cc(N3CCOCC3)oc12` [Compound 7, Methyl 5-[1-cyclopentyl-2-(dimethylamino)carbonyl-1,5,7-triaza-1H-inden-6-ylamino]-2-(5-morpholino-7-oxo-4-oxa-1-thia-3-indenyl)benzoate], for which the IC50 in experiment [1] was under 100 nM; in [2], under 100 nM; in experiment [3] it was 100 to 1000 nM; in [4], 100 to 1000 nM; in experiment [5], 100 to 1000 nM; in experiment [6], under 100 nM. Besides, in experiment [7], the IC50 fell in the range of 1000 to 5000 nM.
Take `CN(C)C(=O)c1cc2cnc(Nc3ccc(-c4csc5c(=O)cc(N6CCOCC6)oc45)c(C(=O)O)c3)nc2n1C1CCCC1` [Compound 10, 5-[1-Cyclopentyl-2-(dimethylamino)carbonyl-1,5,7-triaza-1H-inden-6-ylamino]-2-(5-morpholino-7-oxo-4-oxa-1-thia-3-indenyl)benzoic acid]: the IC50 in experiment [1] was 5000 to 50000 nM; in experiment [2], 5000 to 50000 nM; in [3], under 100 nM; in [4], 100 to 1000 nM; in experiment [5], under 100 nM; in experiment [6], 100 to 1000 nM. Also, the IC50 in experiment [7] was 100 to 1000 nM.
For the compound `Cc1nc2c(F)cc(-c3nc(Nc4ccc(-c5csc6c(=O)cc(N7CCOCC7)oc56)cc4)ncc3F)cc2n1C(C)C` [Compound 5, 3-{p-[5-Fluoro-4-(7-fluoro-3-isopropyl-2-methyl-1,3-diaza-3H-inden-5-yl)-2-pyrimidinylamino]phenyl}-5-morpholino-4-oxa-1-thia-7-indenone], the IC50 was under 100 nM in experiment [1]; under 100 nM in experiment [2]; over 50000 nM in experiment [3]; over 50000 nM in [4]; 5000 to 50000 nM in experiment [5]; 1000 to 5000 nM in experiment [6]. Moreover, the IC50 in [7] is over 50000 nM.
On to `COC(=O)c1cc(-c2csc3c(=O)cc(N4CCOCC4)oc23)ccc1Nc1ncc2cc(C(=O)N(C)C)n(C3CCCC3)c2n1` [Compound 4, Methyl 2-[1-cyclopentyl-2-(dimethylamino)carbonyl-1,5,7-triaza-1H-inden-6-ylamino]-5-(5-morpholino-7-oxo-4-oxa-1-thia-3-indenyl)benzoate], for which the IC50 in experiment [1] is over 50000 nM; in experiment [2] it was over 50000 nM; in [3], 100 to 1000 nM; in experiment [4] it was 1000 to 5000 nM; in experiment [5], 100 to 1000 nM; in experiment [6], 100 to 1000 nM. Besides, the IC50 in experiment [7] lay within 1000 to 5000 nM.
